From patent US7317038B2, “Nerve regeneration promoters containing semaphorin inhibitor as the active ingredient” (Dainippon Sumitomo Pharma Co., Ltd., priority 2000, dated 2008)
Entries after “also recorded” stand apart in the source; their conditions may differ.

Columns and labels:
[1] = molecular target: T1, mouse semaphorin 3A (Sema3A) (Mus musculus, UniProt O08665); experiment: Suppression of growth cone collapse activity of Sema3A (chick embryo dorsal root ganglions); assay type: cell-based; conditions: for IC50: E7 chick embryo dorsal root ganglions, 2 units/ml Sema3A added 1 hour after compound, concentration where collapse rate = (A+B)/2, read-out: IC50 of inhibition of the growth cone collapse activity of Sema3A (converted); for inhibition of growth cone collapse activity of Sema3A (in words): chick embryo dorsal root ganglions
T1 sequence (O08665 21-772): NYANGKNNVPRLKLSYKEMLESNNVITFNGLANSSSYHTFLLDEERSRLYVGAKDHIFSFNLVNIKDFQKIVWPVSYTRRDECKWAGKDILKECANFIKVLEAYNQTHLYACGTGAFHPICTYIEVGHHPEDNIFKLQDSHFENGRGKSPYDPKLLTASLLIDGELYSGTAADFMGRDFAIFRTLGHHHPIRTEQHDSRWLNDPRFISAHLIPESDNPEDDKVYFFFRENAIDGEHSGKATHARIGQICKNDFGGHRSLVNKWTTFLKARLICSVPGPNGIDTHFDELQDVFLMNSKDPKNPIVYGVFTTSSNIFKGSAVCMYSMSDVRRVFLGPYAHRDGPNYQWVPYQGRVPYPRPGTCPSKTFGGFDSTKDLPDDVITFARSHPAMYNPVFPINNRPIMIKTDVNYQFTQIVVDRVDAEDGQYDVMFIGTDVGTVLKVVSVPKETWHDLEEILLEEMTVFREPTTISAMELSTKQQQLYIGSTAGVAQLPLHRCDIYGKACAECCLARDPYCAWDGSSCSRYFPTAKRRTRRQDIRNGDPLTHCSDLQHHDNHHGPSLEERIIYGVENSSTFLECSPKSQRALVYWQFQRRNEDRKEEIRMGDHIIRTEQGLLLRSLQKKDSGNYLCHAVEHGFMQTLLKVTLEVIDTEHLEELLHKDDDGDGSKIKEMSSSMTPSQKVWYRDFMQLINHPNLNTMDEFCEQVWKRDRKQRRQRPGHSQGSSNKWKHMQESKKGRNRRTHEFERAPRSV
Method: A 96-well plate (Sumitomo Bakelite Co., ltd. ) pre-coated with polylysine was further coated with laminine (20 μg/ml of laminine, for 1 hour at room temperature). Each well was added with 100 μl of medium (F12 medium containing 10% bovine fetal serum, 20 ng/ml of NGF, 100 units/ml of penicillin and 100 μg/ml of streptomycin) which media were then inoculated with dorsal root nerve ganglions excised from E7 (Embryonic day 7) chick embryo and were cultured for 16 to 20 hours under 5% CO2 and at 37° C. Subsequently, the object compounds were added to media at various concentrations and 2 units/ml of mouse semaphorin 3A (Sema3A) was added after cultivating for 1 hour. The cultures were further incubated for another 1 hour. Glutaraldehyde was quickly added therein after said 1 hour to make the final concentration 1%. The cultures were then left for 15 minutes at room temperature so that the tissue sections were fixed, and collapse rates of the growth cones were microscopically observed. A well with no addition of Sema3A was made the control.
The longitudinal and lateral axes in the figures represent the collapse rate of growth cones and the concentration of compounds, respectively. ●▪▴ show the results when Sema3A was added after the addition of the compounds and ◯[…]Δ show those when Sema3A was not added. Further, IC50 (μg/ml) of the inhibitors were determined by the method comprising: calculating the collapse rate of growth cone (A) % of the negative controls (neither compounds nor Sema3a was added); subsequently calculate the collapse rate of growth cone (B) % of the positive controls (compounds were not added but Sema3a was added); and the concentration was chosen for each compound from the chart where the collapse rate of growth cone met (A+B)/2(%), which was made IC50 level. The followings are the results.

COS7 cells = experiment: Effect on cell proliferation (MTT); assay type: cell-based; conditions: Chlorocebus aethiops, COS-7, 48 h, two days, read-out: IC50, inhibitory rate for cell proliferation
Method: COS7 cells were seeded onto a 96-well plate (medium 100 μl/well) at 10000 cells per well. At the same time, SPF-3059-1 of various concentrations was added and the cells were cultivated for two days in the presence of 5% CO2 at 37° C. Each well was then added with 10 μl of MTT solution at 5 mg/ml and cultured for another one hour. Subsequently, the culture supernatant was removed and formazan (an MTT derivative produced in viable cells) accumulated in the cells was dissolved by the addition of 50 μl DMSO and then the absorbance at 570 nm was measured to determine the proliferation of COS7 cells. […] The longitudinal and lateral axes in the figure show cell proliferation and the SPF-3059-1 concentration, respectively. Besides, the standard deviation (n=4) was added to each column.
The same effect on cell proliferation as in Example 9 was examined for the compounds, SPF-3059-1, SPF-3059-2 and SPF-3059-5. The wells with these compounds were served as samples, the wells with PBS were served as control, and the wells for which the experiment was carried out without adding the cells was served as blank. IC50 (μg/ml), the inhibitory rate for cell proliferation, was determined, which is calculated by the equation shown below. The inhibitory rate for cell proliferation (%)=(1−(absorbance of a sample well−absorbance of the blank well)/(absorbance of the control well−absorbance of the blank well))×100

Sema3A = molecular target: T2, Sema3A (Mus musculus, UniProt O08665); experiment: Collagen gel co-culture: suppression of neurite outgrowth inhibitory action of Sema3A; assay type: cell-based; design: key to suppression of neurite outgrowth inhibitory activity of Sema3A, score / inhibition of neurite outgrowth-inhibitory action of Sema3A, score: neurites outgrew in a complete concentric circular shape just like for the control groups where Sema3A-non-expressing COS7 cells were used, it was scored +++ (a strong inhibitory effect for Sema3A); outgrowth was found almost in a concentric circular shape accompanied with a little suppression of the outgrowth toward the direction of Sema3A-expressing COS cells, it was scored ++; outgrowth toward the direction of Sema3A-expressing COS cells is fairly suppressed to present a crescent shape, it was scored +; outgrowth toward the direction of Sema3A-expressing COS cells was not found at all (no inhibitory effect for Sema3A), it was scored −; conditions: for suppression of neurite outgrowth inhibitory activity of Sema3A, score: Example 5; for inhibition of neurite outgrowth-inhibitory action of Sema3A, score: Example 16; for persistent inhibitory action to Sema3A (neurite outgrowth toward Sema3A-expressing COS7 cell clump): collagen gel co-culture, 2 days
T2 construct: expressed in transfected cells; host or cells: COS7
T2 sequence (O08665 21-772): T1 sequence (O08665 21-772)
Method: Whether the object compounds (SPF-3059-1, M162, A721) have persistent inhibitory action to Sema3A was analyzed by the collagen gel co-culture method (Neuroprotocols 4, 116, 1994) using Sema3A-expressing COS7 cell clumps and 7- or 8-day-old chick embryo dorsal root ganglions. The Sema3A-expressing COS7 cell clumps were generated as follows. 1 μg of Sema3A-expression plasmid was introduced into COS7 cells (100000 cells/35 mm culture plate), which were cultured overnight, with the FuGENE6 transfection reagent (Roche). 2.5 hours after the starting of the transfection, the COS7 cells were collected by trypsinization and centrifugation, and re-suspended in a medium of 200 μl. 20 μl of the cell suspension was placed on the lid of the culture plate (inside) and the lid was turned over, and then the suspension was cultivated for 20 hours (hanging drop culture) (Cell 78, 425, 1994). When the culture was over, aggregated COS7 cells (clump) were collected and trimmed to a diameter of 0.5 mm. The Sema3A-expressing COS7 cell clump and the above-mentioned dorsal root ganglions were placed in parallel at a distance of 0.5 to 1 mm in a 0.2% collagen gel which was then cultivated in a medium containing the aforementioned compounds at various concentrations for 2 days at 37° C. under 5% CO2. Glutaraldehyde was quickly added therein to make the final concentration 1%. The cultures were then left for 1 hour at room temperature so that the tissues were fixed, and the neurite outgrowth was microscopically observed. The results are found in FIG. 4.
When a medium not containing a subject compound was used, neurites were unable to grow towards the COS7 cell clump with the high concentration of Sema3A and grew only to the opposite direction.
In a similar way as in Example 4, suppression of the neurite outgrowth inhibitory activity was analyzed for the compounds, SPF-3059-1, SPF-3059-2 and SPF-3059-5. When the neurites outgrew in a complete concentric circular shape just like for the control groups where Sema3A-non-expressing COS7 cells were used, it was scored +++ (a strong inhibitory effect for Sema3A). When the outgrowth was found almost in a concentric circular shape accompanied with a little suppression of the outgrowth toward the direction of Sema3A-expressing COS cells, it was scored ++. […] When the outgrowth toward the direction of Sema3A-expressing COS cells was not found at all (no inhibitory effect for Sema3A), it was scored −.

Solubility = assay type: physicochemical

| SMILES | IC50 [1] | inhibition of growth cone collapse activity of Sema3A (in words) [1] | IC50 (COS7 cells) | suppression of neurite outgrowth inhibitory activity of Sema3A, score (Sema3A; 0.5 μg/ml compound) | suppression of neurite outgrowth inhibitory activity of Sema3A, score (Sema3A; 1.0 μg/ml compound) | suppression of neurite outgrowth inhibitory activity of Sema3A, score (Sema3A; 2.0 μg/ml compound) | inhibition of neurite outgrowth-inhibitory action of Sema3A, score (Sema3A; 2 μg/ml compound) | persistent inhibitory action to Sema3A (neurite outgrowth toward Sema3A-expressing COS7 cell clump) (Sema3A) | Solubility (Solubility; methanol, DMSO) | Solubility (Solubility; water, hexane) | inhibition of neurite outgrowth-inhibitory action of Sema3A, score (Sema3A; 6 μg/ml compound) | inhibition of neurite outgrowth-inhibitory action of Sema3A, score (Sema3A; 20 μg/ml compound) |
| --- | --- | --- | --- | --- | --- | --- | --- | --- | --- | --- | --- | --- |
| CC(=O)c1cc2c(=O)c3c(C(=O)O)c(O)c(O)cc3oc2c(C(C)=O)c1-c1coc2cc(O)c(O)c(C(=O)O)c2c1=O [SPF-3059-5] | < 0.173 µM | inhibit the growth cone collapse activities of Sema3A in a concentration-dependent manner; also recorded: potently inhibit semaphorin | > 300 µg/mL | + | ++ | ++ | ++ | persistently inhibited the action of Sema3A |  |  |  |  |
| CC(=O)c1cc2c(=O)c3c(C(=O)O)cc(O)cc3oc2c(C(C)=O)c1-c1coc2cc(O)c(O)c(C(=O)O)c2c1=O [SPF-3059-4] | 3.57 µM |  | > 100 µg/mL |  |  |  | − |  | Soluble | Insoluble | + | ++ |
| CC(=O)c1cc2c(=O)c3c(C(=O)O)c(O)c(O)cc3oc2c(C(C)=O)c1-c1coc2cc(O)cc(C(=O)O)c2c1=O [SPF-3059-12] | 3.57 µM |  | > 100 µg/mL |  |  |  | + |  | Soluble | Insoluble | + | ++ |
| CC(=O)c1c(C)c(C(=O)C2COc3cc(O)c(O)c(C(=O)O)c3C2=O)cc2c(=O)c3cc(O)c(O)cc3oc12 (stereo not drawn) [SPF-3059-3] | 0.374 µM |  | > 100 µg/mL |  |  |  | +++ |  | Soluble | Insoluble |  |  |
| CC(=O)c1cc2c(=O)c3cc(O)c(O)cc3oc2c(C(C)=O)c1-c1coc2cc(O)c(O)c(C(=O)O)c2c1=O [SPF-3059-2] |  | inhibit the growth cone collapse activities of Sema3A in a concentration-dependent manner; also recorded: potently inhibit semaphorin | > 100 µg/mL | + | ++ | +++ | +++ | persistently inhibited the action of Sema3A |  |  |  |  |
| COCc1c(-c2cc3c(=O)c4c(C(=O)O)c(O)c(O)cc4oc3c(C(C)=O)c2C)oc2cc(O)c(O)c(C(=O)O)c2c1=O [SPF-3059-6] | 0.169 µM |  | > 100 µg/mL |  |  |  | ++ |  | Soluble | Insoluble | ++ | +++ |
| CC(=O)c1c(C)c(C(=O)C2COc3cc(O)c(O)c(C(=O)O)c3C2=O)cc2c(=O)c3c(C(=O)O)cc(O)cc3oc12 (stereo not drawn) [SPF-3059-7] | 1.78 µM |  | > 100 µg/mL |  |  |  | + |  | Soluble | Insoluble | + | ++ |
